For the assay, the system named is CEM cells HIV-1 protection, formazan growth assay. Kind of assay: NCI AIDS Antiviral Assay. The note with it: for IC50: measured here: growth of uninfected CEM cells. A digest of the protocol:
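Five concentrations of each compound were applied to infected and uninfected human CEM cells. Protection from HIV-1 was judged from growth measured with a soluble formazan assay.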

Calls of active or inactive are those of the source.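 The calls were made as follows: active = compounds giving half or more protection of infected cells from virus-caused growth loss, again on retest; inactive = the rest.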 Where a SMILES comes first, the peptide text is derived from it. [ ]: non-standard residue; d: D form. The star is where a group is joined. Nle = CCCC[CH](N)C(=O)O; Cbz = O=C(OCc1ccccc1)*; OBn = c1ccc(CO*)cc1

One may read the EC50 as the concentration that produces a half-maximal response. In general, IC50 refers to the concentration at which inhibition is half-maximal. A higher IC50 goes with lower potency.

`CC1C(=O)c2c(O)cc(O)cc2O[C@@H]1C` (stereo partly drawn): the EC50 was above 200 µM and the concentration for half-maximal inhibition (IC50) was above 200 µM.
Regarding `CC(C)=CCC[C@@H](C)C1=C(O)C(Nc2ccccc2F)=C(C)C(=O)C1=O`, the EC50 is above 200 µM and the concentration for half-maximal inhibition (IC50) was found to be 15.8 µM.
For the compound `CC(C)(C)[Si](C)(C)OCC1OC(n2cc(I)c(N)nc2=O)C(O[Si](C)(C)C(C)(C)C)C1O[Si](C)(C)C(C)(C)C` (stereo not drawn), the EC50 was above 200 µM and the IC50 stood at 6.76 µM.
In the case of `COc1cc(-c2oc3c(OC)c(OC)c(OC)c(OC)c3c(=O)c2OC)cc(OC)c1OC`, the EC50 is above 200 µM and the half-maximal inhibitory concentration (IC50) came to 17.8 µM.
On the same counts, the results for `O=NNc1nc(-c2cccnc2)nc2ccccc12` are above 200 µM and above 200 µM.
As to `Cc1nn(C(=O)c2ccc(Cl)cc2)c2c1C(c1ccc(Cl)cc1)SC(N)=N2` (stereo not drawn), the EC50 was above 200 µM and the IC50 amounted to 36.3 µM.
For `CC(=O)OC1C(O)C(C)OC(OC2C(OC(=O)C3CCC4C(C3)OC3(CC(OC(=O)/C=C/c5ccccc5)C(C)CO3)C43CO3)OC(C)C(O)C2OC(C)=O)C1O` (stereo not drawn), the EC50 is above 1.55 µM and the concentration for half-maximal inhibition (IC50) came out at 0.0012 µM.
Regarding `CC1(C)C(=O)N(c2ccccc2)C(=O)N1c1nc2ccccc2[nH]1`, the EC50 was above 155 µM and the half-maximal inhibitory concentration (IC50) was above 155 µM.
`CCC[CH2][Sn]1([CH2]CCC)[O]C(=O)C2C(C=C(C)C)C=C(C)C(C)C2C(=O)[O]1` (stereo not drawn): the EC50 was above 2 µM and the IC50 was determined as 0.0871 µM.
Take `COc1cccc([B-]23OCC[N+]2(CNC(=O)C2=C(O)C4(O)C(=O)C5=C(O)c6c(O)cccc6C(C)(O)C5CC4C(N(C)C)C2=O)CCO3)c1` (stereo not drawn): the EC50 was above 38 µM and the IC50 was above 38 µM.
Take `Cc1n(-c2ccccc2)c2c([n+]1Cc1ccc([N+](=O)[O-])cc1)C(=O)c1ccccc1C2=O`: the EC50 is above 70.8 µM and the IC50 was 3.63 µM.
For `CP(C)CC[PH+](CC[PH+](C)C)CC[PH+](C)C.[C-]#[O+].[C-]#[O+].[W]`, the result was inactive.
Turning to `FC1(F)SC2C3CCC(C3)C2C1(F)F` (stereo not drawn), the outcome was inactive.
Regarding `CC(O)CNC1=CC(=O)C(=O)c2ccccc21` (stereo not drawn), the EC50 was above 200 µM and the half-maximal inhibitory concentration (IC50) is 28.8 µM.
`COc1ccc2c(C3(C)OC(=O)c4ccccc43)cccc2c1` (stereo not drawn): the EC50 was above 40.7 µM and the IC50 was above 40.7 µM.
Consider `CC(=O)Nc1ccc(C(=O)NN2C(=O)C(Cl)C2c2cc(Br)cc(Br)c2O)cc1` (stereo not drawn), for which the result was inactive.
As for `C1CC(C2OCOC3COCOC32)OO1` (stereo not drawn), the EC50 was above 200 µM and the IC50 is above 200 µM.
As to `COc1ccc2c(=O)c(-c3ccccc3)c(C)oc2c1`, the EC50 is above 200 µM and the IC50 came out at 75.9 µM.
On to `C(=C\c1ccc2ccccc2n1)/c1ccc2c(c1)OCO2`, for which the EC50 is above 200 µM and the 50% inhibitory concentration (IC50) is above 200 µM.
`COc1ccc(N2C(=O)CC(=O)N(C(=O)COc3ccc(OCC(=O)N4C(=O)CC(=O)N(c5ccc(OC)cc5)C4=S)cc3)C2=S)cc1`: the EC50 is above 200 µM and the IC50 came to 50.1 µM.
On the same counts, the results for `Cc1cccc(C)c1NC(=O)CCC(=O)NNc1nnc(C)n1N` are above 398 µM and above 398 µM.
On to `Cc1sc2c(c1C)/C(=N\O)c1cccn1-2`, for which the EC50 was above 200 µM and the half-maximal inhibitory concentration (IC50) was 41.7 µM.
`O=C(O)CCSSCCCCS(=O)O`: the EC50 was above 200 µM and the IC50 came to 2.04 µM.
The like results for `Cc1ccc(N=NC2S/C(=C(\C#N)c3nc4ccccc4[nH]3)N(c3ccccc3)C2=O)cc1` (stereo not drawn) were, in that order, above 2.24 µM and above 2.24 µM.
`CCOC(=O)c1nc2ccc(C(F)(F)F)cc2nc1Nc1ccc(Cl)c(Cl)c1`: the outcome was inactive.
`Cc1ccc(C2C(Cl)C(=O)N2n2cnc3ccccc3c2=O)cc1` (stereo not drawn): the EC50 is above 39.8 µM and the concentration for half-maximal inhibition (IC50) was above 39.8 µM.
Regarding `COc1cc(C(c2c(O)c3ccccc3oc2=O)c2c(O)c3ccccc3oc2=O)cc(OC)c1OC`, the EC50 was above 200 µM and the 50% inhibitory concentration (IC50) turned out to be 93.3 µM.
On the same counts, the results for `CN1CCN(C(=S)N2CCN(C)CC2)CC1` are above 2 µM and 1.91 µM.
In the case of `NC(=O)c1c(-c2ccccc2)c(-c2ccccc2)cc2c(=O)c3ccccc3[nH]c12`, the outcome was inactive.
`CCCCCCCCCCCCCCCCCC(=O)OC[C@H](COP(=O)(O)OCCNC(=O)CCC(=O)OCCC=C(c1cc(Cl)c(OC)c(C(=O)OC)c1)c1cc(Cl)c(OC)c(C(=O)OC)c1)OC(=O)CCCCCCCCCCCCCCCCC`: the EC50 was above 100 µM and the half-inhibitory concentration (IC50) is above 100 µM.
Regarding `CCc1occc(=O)c1O`, the EC50 is above 1780 µM and the IC50 was found to be 339 µM.
In the case of `C=C(CS(=O)(=O)c1ccccc1)[P+](c1ccccc1)(c1ccccc1)c1ccccc1`, the result was inactive.
As to `CCCCCCCCCCCCCCCCOCC(COP(=O)([O-])OCC[n+]1ccc(N(C)C)cc1)OCC` (stereo not drawn), the EC50 is above 200 µM and the IC50 was 66.1 µM.
Turning to `CC(=O)NC1=N/C(=C/c2cc([N+](=O)[O-])ccc2O)CN1C`, the EC50 was above 200 µM and the IC50 is above 200 µM.
Turning to `C[n+]1c(-c2ccc(/C=N\NC(=O)c3cccc(C(=O)N/N=C/c4ccc(-c5cn6ccccc6[n+]5C)cc4)c3)cc2)cn2ccccc21`, the half-maximal effective concentration (EC50) was 6.03 µM and the IC50 was 89.1 µM.
As for `CC(C)(C)C1=CC(=N/N=c2\scc(-c3ccccc3)n2-c2ccccc2)C=C(C(C)(C)C)C1=O`, the EC50 is above 15.1 µM and the IC50 is above 15.1 µM.
Regarding `CN(C)C1=Nc2ccccc2C(=S)N2CSCC12` (stereo not drawn), the EC50 is above 200 µM and the IC50 was determined as 29.5 µM.
In the case of `CNC(=S)N(C)C(=S)Nn1c(=O)c(C)nn(C)c1=S`, the EC50 was 18.6 µM and the IC50 was above 200 µM.
In the case of `Cc1ccccc1N1C(=O)CC2(CCCC2)C1=O`, the EC50 is above 363 µM and the IC50 is 214 µM.
With `Nc1ccc(N=Nc2ccc(/C=C/c3ccc(N=Nc4ccc(N)c5cc(S(=O)(=O)O)ccc45)cc3S(=O)(=O)O)c(S(=O)(=O)O)c2)c2ccc(S(=O)(=O)O)cc12`, the EC50 was above 107 µM and the 50% inhibitory concentration (IC50) turned out to be 30.2 µM.
For the compound `Nn1c(-c2ccccc2Nc2ccccc2-c2n[nH]c(=S)n2N)n[nH]c1=S`, the EC50 was above 50.1 µM and the half-inhibitory concentration (IC50) was 6.17 µM.
On to `O=C(Nc1ccccc1)c1cc2cc(O)c(O)cc2cn1`, for which the EC50 is above 158 µM and the IC50 turned out to be 7.41 µM.
On the same counts, the results for `CCCCC(NC(=O)C1CCCN1C(=O)OCc1ccccc1)C(=O)OCc1ccccc1` (stereo not drawn) (Cbz-Pro-[Nle]-OBn; configuration not given here) are above 41.7 µM and above 41.7 µM.
Take `Nc1ccc(S(=O)(=O)c2ccc(NCNC(CSSCC(NCNc3ccc(S(=O)(=O)c4ccc(N)cc4)cc3)C(=O)O)C(=O)O)cc2)cc1` (stereo not drawn): the EC50 was above 200 µM and the 50% inhibitory concentration (IC50) stood at 112 µM.
On to `NC(CSS(=O)(=O)O)=NCc1cccs1`, for which the EC50 was above 200 µM and the 50% inhibitory concentration (IC50) is above 100 µM.
For the compound `C1=CC2C(C3CN(c4ccccc4)N=C13)C1C3C4C=CC21C=CC43` (stereo not drawn), the EC50 is above 200 µM and the half-inhibitory concentration (IC50) was above 200 µM.
Consider `Cc1cn(C2CC(N=[N+]=[N-])C(CO[Si](C)(C)C(C)(C)C)O2)c(=O)[nH]c1=O` (stereo not drawn), for which the EC50 is 7.08 µM and the half-maximal inhibitory concentration (IC50) is 66.1 µM.
Turning to `NC(N)=Nc1ccc2oc(=O)ccc2c1`, the EC50 is above 120 µM and the IC50 is above 120 µM.
For `CC(C)[C@H](NC(=O)OCc1ccccc1)C(=O)N[C@H](/C=C/C(=O)OC(C)(C)C)CO`, the EC50 was above 200 µM and the IC50 was determined as 97.7 µM.
For the compound `O=C(Cc1ccccc1)NN1C(=O)/C(=C\c2cccc([N+](=O)[O-])c2)SC1=Nc1ccccc1`, the EC50 is above 56.2 µM and the IC50 is above 56.2 µM.
As for `N/N=C1\C(=O)N(c2ccc(Cl)c(Cl)c2)C(=O)C1C(=O)Nc1ccc(Cl)c(Cl)c1` (stereo not drawn), the EC50 was above 1.2 µM and the IC50 is above 1.2 µM.
Consider `O=Nc1ccc(N=O)cc1`, for which the EC50 is above 200 µM and the IC50 was above 200 µM.
With `COc1cc(N=Nc2ccc3c(c2)Cc2ccccc2-3)c(OC)cc1N`, the EC50 is above 200 µM and the half-maximal inhibitory concentration (IC50) came to 46.8 µM.
As for `c1ccc2c(c1)nc1n2C2CCC(C2)N1` (stereo not drawn), the EC50 was above 200 µM and the half-inhibitory concentration (IC50) was above 200 µM.
With `CC(=O)c1cccc(C(C)=O)c1N=Cc1ccc(Cl)cc1`, the EC50 is above 200 µM and the half-maximal inhibitory concentration (IC50) was 13.2 µM.
As to `COc1c(O)c(C=O)c2c(O)c(-c3c(C)cc4c(C(C)C)c(OC)c(O)c(C=O)c4c3O)c(C)cc2c1C(C)C`, the EC50 was above 151 µM and the IC50 turned out to be 2.57 µM.
`CCCCCCCCCCCCCCCCCC(=O)OCC(COC(=O)CCCN)OC(=O)CCCN` (stereo not drawn): the outcome was inactive.
On to `O=c1[nH][nH]c(=O)n1Cc1cccc(Cn2c(=O)[nH][nH]c2=O)c1`, for which the EC50 is above 200 µM and the 50% inhibitory concentration (IC50) is above 200 µM.
Regarding `CN1CCN(C(=S)N(C)C(=O)c2ccc(Cl)cc2)CC1`, the EC50 was above 794 µM and the IC50 worked out at 389 µM.
With `CCOC(=O)C(CCCl)C(=O)OCC`, the EC50 is above 200 µM and the concentration for half-maximal inhibition (IC50) was above 200 µM.
`O/N=C/c1cc(I)cc(I)c1O`: the EC50 is above 66.1 µM and the half-inhibitory concentration (IC50) stood at 33.9 µM.
`COc1ccc2nc(NC(=O)C(=O)CC(=O)c3ccc([N+](=O)[O-])cc3)sc2c1`: the result was inactive.
`CCOC(=O)CCC(NC(=O)c1ccc(Oc2nc3ccccc3nc2-c2ccccc2)cc1)C(=O)OCC` (stereo not drawn): the EC50 was above 200 µM and the IC50 was above 200 µM.
With `C/C(=N\O)c1ccc(S(=O)(=O)c2ccc([N+](=O)[O-])cc2)cc1`, the EC50 is above 200 µM and the concentration for half-maximal inhibition (IC50) was above 200 µM.
As to `CCN1C(=NCCO)NS(=O)(=O)c2ccccc21`, the EC50 is above 200 µM and the IC50 is above 200 µM.
On to `S=C(S)N1CCN(c2cccc(Cl)c2)CC1`, for which the EC50 is above 200 µM and the IC50 was found to be 182 µM.
On the same counts, the results for `CCOC(=O)C1(C(=O)OCC)C=C(c2ccccc2)N(C2OC(COC(C)=O)C(OC(C)=O)C(OC(C)=O)C2OC(C)=O)C1=S` (stereo not drawn) are above 200 µM and 24.5 µM.
Consider `COc1cccc(Oc2c(O)c3ccc(OC)cc3oc2=O)c1`, for which the EC50 is above 200 µM and the concentration for half-maximal inhibition (IC50) came out at 141 µM.

Source of the values: PubChem BioAssay AID179 (DTP/NCI, 2004).
